Laboratory results published in ChEMBL document CHEMBL2010747, “Synthesis of [12]aneN3-dipeptide conjugates as metal-free DNA nucleases” (Bioorg Med Chem Lett, 2012).
The source made the active and inactive calls. The rule behind the calls is not given here. Peptide text beside a SMILES is read from it. * marks the point of attachment. Fmoc = O=C(OCC1c2ccccc2-c2ccccc21)*

Legend:
Format in all cases: nucleic-acid assay
[1] = test system: Nucleic Acid; experiment: Induction of Escherichia coli pUC18 DNA cleavage assessed as formation of open circular DNA at 200 uM after 48 hrs by agarose gel electrophoresis
[2] = test system: Nucleic Acid; experiment: Displacement of ethidium bromide from calf thymus DNA after 1 min by fluorimetry; conditions: Bos taurus
[3] = test system: Nucleic Acid; experiment: Induction of Escherichia coli pUC18 DNA cleavage assessed as formation of open circular DNA at 200 uM after 48 hrs by agarose gel electrophoresis in presence of EDTA
[4] = test system: Nucleic Acid; experiment: Induction of Escherichia coli pUC18 DNA cleavage assessed as formation of open circular DNA at 200 uM after 48 hrs by agarose gel electrophoresis in presence of […]
[5] = test system: Nucleic Acid; experiment: Induction of Escherichia coli pUC18 DNA cleavage assessed as formation of open circular DNA at 200 uM after 48 hrs by agarose gel electrophoresis in presence of singlet oxygen radical scavenger NaN3
[6] = test system: Nucleic Acid; experiment: Induction of Escherichia coli pUC18 DNA cleavage assessed as formation of open circular DNA at 200 uM after 48 hrs by agarose gel electrophoresis in presence of hydroxyl radical scavenger DMSO
[7] = test system: Nucleic Acid; experiment: Induction of Escherichia coli pUC18 DNA cleavage assessed as formation of open circular DNA at 200 uM after 48 hrs by agarose gel electrophoresis in presence of hydroxyl radical scavenger t-BuOH
[8] = test system: Nucleic Acid; experiment: Induction of Escherichia coli pUC18 DNA cleavage assessed as formation of linear DNA at 50 to 500 uM after 48 hrs by agarose gel electrophoresis
[9] = test system: Nucleic Acid; experiment: Induction of Escherichia coli pUC18 DNA cleavage assessed as formation of open circular DNA at 200 uM from 6 to 48 hrs by agarose gel electrophoresis
[10] = test system: Nucleic Acid; experiment: Induction of Escherichia coli pUC18 DNA cleavage assessed as formation of linear DNA at 200 uM after 48 hrs by agarose gel electrophoresis

| Compound | Activity [1] | Kapp [2] | also measured |
| --- | --- | --- | --- |
| COC(=O)[C@H](C)NC(=O)[C@@H](N)CC(C)C (H-Leu-Ala-OMe) | inactive | – | – |
| COC(=O)CNC(=O)CN | inactive | – | – |
| COC(=O)[C@H](CO)NC(=O)[C@H](CC(C)C)NC(=O)CN1CCCNCCCNCCC1 | 50% | 7.2 ×10⁴ /M | – |
| COC(=O)[C@H](C)NC(=O)[C@H](CC(C)C)NC(=O)CN1CCCNCCCNCCC1 | 50% | 5.9 ×10⁴ /M | Activity [3]: Active; Activity [4]: Active; Activity [5]: Active; Activity [6]: Active; Activity [7]: Active; Activity [8]: Active; Activity [9]: Active; Activity [10]: inactive |
| COC(=O)[C@H](Cc1ccccc1)NC(=O)[C@H](CC(C)C)NC(=O)CN1CCCNCCCNCCC1 | 50% | 6.6 ×10⁴ /M | – |
| COC(=O)CNC(=O)[C@H](CC(C)C)NC(=O)CN1CCCNCCCNCCC1 | 50% | 4 ×10⁴ /M | – |
| COC(=O)[C@H](CCCCNC(=O)OCC1c2ccccc2-c2ccccc21)NC(=O)[C@@H](N)CC(C)C (H-Leu-Lys(Fmoc)-OMe) | inactive | – | – |
| COC(=O)[C@H](Cc1c[nH]c2ccccc12)NC(=O)[C@H](CC(C)C)NC(=O)CN1CCCNCCCNCCC1 | 50% | 4.7 ×10⁴ /M | – |
| COC(=O)[C@H](CCCCN)NC(=O)[C@H](CC(C)C)NC(=O)CN1CCCNCCCNCCC1 | 50% | 7.1 ×10⁴ /M | Activity [3]: Active; Activity [4]: Active; Activity [5]: Active; Activity [6]: Active; Activity [7]: Active; Activity [8]: Active; Activity [9]: Active |
| COC(=O)[C@H](CO)NC(=O)[C@@H](N)CC(C)C (H-Leu-Ser-OMe) | inactive | – | – |
| COC(=O)[C@H](Cc1ccc(O)cc1)NC(=O)[C@H](CC(C)C)NC(=O)CN1CCCNCCCNCCC1 | 50% | 6.4 ×10⁴ /M | – |
| COC(=O)[C@H](Cc1c[nH]c2ccccc12)NC(=O)[C@@H](N)CC(C)C | inactive | – | – |
| COC(=O)CNC(=O)CNC(=O)CN1CCCNCCCNCCC1 | 50% | 4.2 ×10⁴ /M | – |
| COC(=O)[C@H](Cc1ccccc1)NC(=O)[C@@H](N)CC(C)C (H-Leu-Phe-OMe) | inactive | – | – |
| COC(=O)CNC(=O)[C@@H](N)CC(C)C (H-Leu-Gly-OMe) | inactive | – | – |
| COC(=O)[C@H](Cc1ccc(O)cc1)NC(=O)[C@@H](N)CC(C)C (H-Leu-Tyr-OMe) | inactive | – | – |
